Test results published in patent US11110146B2, “Methods for reducing platelet aggregation and treating cardiovascular disease and other medical disorders” (Paradise Health, Inc., priority 2014, dated 2021).
Several values for one entry are separate records, joined by “and”; a condition that tells them apart may be missing. Equal entries are not always repeated.

Experiments:
Type in all cases: cell-based, human
[1] = test system: platelets in platelet-rich plasma (PRP); experiment: Light transmission aggregometry, platelet aggregation induced by adenosine diphosphate; settings: for inhibition of platelet aggregation in the presence of 5 or 20 μM ADP: at any of the concentrations tested
Experimental: (§1) All the experiments were conducted using healthy adult volunteers not taking aspirin or other medications that affect platelet aggregation. Whole blood was collected into 0.105 M buffered sodium citrate as the anticoagulant. Platelet-rich plasma (PRP) was prepared by centrifugation of whole blood at 135×g for 20 min. The residual blood sample was then centrifuged at 2,500×g for 15 min to obtain platelet-poor plasma (PPP). Platelet counts in the PRP were determined using a Horiba Micros 60 cell counter. For LTA experiments, platelet counts in PRP were adjusted to 250,000/μL using autologous donor PPP as the diluent.
Stock solutions of ADP (200 μM) were prepared in saline and stored frozen at −80° C. A vial of stock ADP was thawed and further diluted in saline to obtain a 50 μM ADP solution. Fifty (50) μL of ADP solution (200 and 50 μM) were added to 450 μL of adjusted PRP to perform aggregation tests with 20 μM ADP and 5 μM ADP.
(§2) The samples were incubated in a water bath at 37° C. for 30 min before performing the LTA experiments. […]
(§3) After incubation of PRP with test articles, 450 μL of PRP were transferred into aggregation cuvettes for LTA testing. All aggregation experiments were performed on a LTA-Chronolog 700 aggregometer with Aggrolink 8 software. The instrument was set for an optical mode of data acquisition and the stir bar speed was set to 1.200 rpm. Autologous PPP was used in the reference channel of the aggregometer and baselines were set prior to addition of agonists. Fifty (50) μL of working agonist solutions (AA, ADP, and Collagen) were added to the cuvettes and tracings recorded for a minimum of 6 minutes. The maximal aggregation (MA) response was calculated using Aggrolink software for reporting the data.

[2] = test system: platelets in platelet-rich plasma (PRP); experiment: Light transmission aggregometry, platelet aggregation induced by collagen
Experimental: as §1, with “Whole” for “All the experiments were conducted using healthy adult volunteers not taking aspirin or other medications that affect platelet aggregation. Whole”
Twenty five (25) jμL of the stock solution of collagen (1 mg/ml) was added to 475 μL of collagen dilution buffer to obtain a 50 μg/ml working solution. Fifty (50) μL of collagen solution was added to 450 μL of adjusted PRP to perform aggregation tests. The final concentration of collagen used for aggregation testing was 5 μg/ml.
as §2, §3

[3] = test system: platelets in platelet-rich plasma (PRP); experiment: Light transmission aggregometry, platelet aggregation induced by arachidonic acid
Experimental: as §1
The stock vial (16 mM) of AA was diluted by adding 0.5 mL of deionized water to obtain a 1.6 mM AA solution. The AA solution was maintained on ice and was used within 6 hr of preparation.
The samples were incubated in a water bath at 37° C. for 30 min before performing the LTA experiments.
The adjusted PRP was incubated with indicated concentration of GoPE (Table 7) for 30 min at 37° C.
as §3

[4] = Aspirin 10 μM, individual donor
[5] = Aspirin 100 μM, individual donor
[6] = Aspirin 1000 μM, individual donor
[7] = substance at 10 μM and higher (6-paradol: in most experiments)
[8] = substance at a concentration of 1 μM
[9] = 6-paradol 1 μM, individual donor
[10] = 6-paradol 10 μM, individual donor
[11] = 6-paradol 100 μM, individual donor
[12] = 6-paradol 1000 μM, individual donor

Structure (SMILES): CC(=O)Oc1ccccc1C(=O)O [Aspirin, aspirin]
- Maximal Percent Aggregation Response to 5 μM Adenosine Diphosphate ([1]; Aspirin 1 μM, Mean): 82%
- Maximal Percent Aggregation Response to 20 μM Adenosine Diphosphate ([1]; Aspirin 1 μM, Mean): 90%
- Maximal Percent Aggregation Response to 5 μM Adenosine Diphosphate ([1]; Aspirin 1 μM, individual donor): 78% and 83% and 92% and 73%
- Maximal Percent Aggregation Response to 20 μM Adenosine Diphosphate ([1]; Aspirin 1 μM, individual donor): 91% and 87% and 100% and 81% and 90%
- Maximal Percent Aggregation Response to 5 μM Adenosine Diphosphate ([1]; Aspirin 10 μM, Mean): 70%
- Maximal Percent Aggregation Response to 20 μM Adenosine Diphosphate ([1]; Aspirin 10 μM, Mean): 80%
- Maximal Percent Aggregation Response to 5 μM Adenosine Diphosphate [1, 4]: 82% and 63% and 84% and 52%
- Maximal Percent Aggregation Response to 20 μM Adenosine Diphosphate [1, 4]: 78% (2×) and 92% and 68% and 84%
- Maximal Percent Aggregation Response to 5 μM Adenosine Diphosphate ([1]; Aspirin 100 μM, Mean): 71%
- Maximal Percent Aggregation Response to 20 μM Adenosine Diphosphate ([1]; Aspirin 100 μM, Mean): 86%
- Maximal Percent Aggregation Response to 5 μM Adenosine Diphosphate [1, 5]: 63% and 94% and 75% and 53%
- Maximal Percent Aggregation Response to 20 μM Adenosine Diphosphate [1, 5]: 63% and 87% (2×) and 95% and 97%
- Maximal Percent Aggregation Response to 5 μM Adenosine Diphosphate ([1]; Aspirin 1000 μM, Mean): 74%
- Maximal Percent Aggregation Response to 20 μM Adenosine Diphosphate ([1]; Aspirin 1000 μM, Mean): 80%
- Maximal Percent Aggregation Response to 5 μM Adenosine Diphosphate [1, 6]: 71% and 90% and 86% and 50%
- Maximal Percent Aggregation Response to 20 μM Adenosine Diphosphate [1, 6]: 72% and 84% and 80% and 78% and 88%
- inhibition of platelet aggregation in the presence of 5 or 20 μM ADP [1]: did not significantly inhibit
- Maximal Percent Aggregation Response to 5 μg/mL Collagen ([2]; Aspirin 1 μM, Mean): 94%
- Maximal Percent Aggregation Response to 5 μg/mL Collagen ([2]; Aspirin 1 μM, individual donor): 100% (2×) and 82% and 92% and 97%
- Maximal Percent Aggregation Response to 5 μg/mL Collagen ([2]; Aspirin 10 μM, Mean): 91%
- Maximal Percent Aggregation Response to 5 μg/mL Collagen [2, 4]: 86% and 100% (2×) and 80% and 87%
- Maximal Percent Aggregation Response to 5 μg/mL Collagen ([2]; Aspirin 100 μM, Mean): 65%
- Maximal Percent Aggregation Response to 5 μg/mL Collagen [2, 5]: 52% and 92% and 61% and 90% and 28%
- Maximal Percent Aggregation Response to 5 μg/mL Collagen ([2]; Aspirin 1000 μM, Mean): 56%
- Maximal Percent Aggregation Response to 5 μg/mL Collagen [2, 6]: 39% and 75% and 52% and 83% and 32%
- inhibition at 1000 µM ([2]; Homo sapiens, Platelet, read-out: inhibition of collagen-mediated platelet aggregation response relative to DMSO control): ~37%
- Maximal Percent Aggregation Response to 1.6 mM Arachidonic Acid ([3]; Aspirin 1 μM, Mean): 69%
- Maximal Percent Aggregation Response to 1.6 mM Arachidonic Acid ([3]; Aspirin 1 μM, individual donor): 75% and 0% and 100% and 73% and 95%
- Maximal Percent Aggregation Response to 1.6 mM Arachidonic Acid ([3]; Aspirin 10 μM, Mean): 2%
- Maximal Percent Aggregation Response to 1.6 mM Arachidonic Acid [3, 4]: 0% (3×) and 1% and 7%
- Maximal Percent Aggregation Response to 1.6 mM Arachidonic Acid ([3]; Aspirin 100 μM, Mean): 1%
- Maximal Percent Aggregation Response to 1.6 mM Arachidonic Acid [3, 5]: 0% (4×) and 5%
- Maximal Percent Aggregation Response to 1.6 mM Arachidonic Acid ([3]; Aspirin 1000 μM, Mean): 2%
- Maximal Percent Aggregation Response to 1.6 mM Arachidonic Acid [3, 6]: 0% (3×) and 8%
- inhibition of AA-mediated platelet aggregation [3, 7]: near complete inhibition
- inhibition of AA-mediated platelet aggregation [3, 8]: did not significantly inhibit

Structure (SMILES): CCCCCCCC(=O)CCc1ccc(O)c(OC)c1 [6-paradol]
- Maximal Percent Aggregation Response to 5 μM Adenosine Diphosphate ([1]; 6-paradol 1 μM, Mean): 77%
- Maximal Percent Aggregation Response to 20 μM Adenosine Diphosphate ([1]; 6-paradol 1 μM, Mean): 83%
- Maximal Percent Aggregation Response to 5 μM Adenosine Diphosphate [1, 9]: 83% and 81% and 92% and 50%
- Maximal Percent Aggregation Response to 20 μM Adenosine Diphosphate [1, 9]: 70% and 85% and 88% and 74% and 99%
- Maximal Percent Aggregation Response to 5 μM Adenosine Diphosphate ([1]; 6-paradol 10 μM, Mean): 74%
- Maximal Percent Aggregation Response to 20 μM Adenosine Diphosphate ([1]; 6-paradol 10 μM, Mean): 86%
- Maximal Percent Aggregation Response to 5 μM Adenosine Diphosphate [1, 10]: 77% and 78% and 96% and 46%
- Maximal Percent Aggregation Response to 20 μM Adenosine Diphosphate [1, 10]: 81% and 82% and 100% and 84% and 85%
- Maximal Percent Aggregation Response to 5 μM Adenosine Diphosphate ([1]; 6-paradol 100 μM, Mean): 63%
- Maximal Percent Aggregation Response to 20 μM Adenosine Diphosphate ([1]; 6-paradol 100 μM, Mean): 79%
- Maximal Percent Aggregation Response to 5 μM Adenosine Diphosphate [1, 11]: 57% and 67% and 81% and 45%
- Maximal Percent Aggregation Response to 20 μM Adenosine Diphosphate [1, 11]: 63% and 73% and 95% and 76% and 90%
- Maximal Percent Aggregation Response to 5 μM Adenosine Diphosphate ([1]; 6-paradol 1000 μM, Mean): 50%
- Maximal Percent Aggregation Response to 20 μM Adenosine Diphosphate ([1]; 6-paradol 1000 μM, Mean): 66%
- Maximal Percent Aggregation Response to 5 μM Adenosine Diphosphate [1, 12]: 55% and 53% and 59% and 33%
- Maximal Percent Aggregation Response to 20 μM Adenosine Diphosphate [1, 12]: 53% and 67% (3×) and 78%
- inhibition of platelet aggregation in the presence of 5 or 20 μM ADP [1]: did not significantly inhibit
- Maximal Percent Aggregation Response to 5 μg/ml Collagen ([2]; 6-paradol 1 μM, Mean): 89%
- Maximal Percent Aggregation Response to 5 μg/ml Collagen [2, 9]: 81% and 100% and 77% and 97% and 90%
- Maximal Percent Aggregation Response to 5 μg/ml Collagen ([2]; 6-paradol 10 μM, Mean): 95%
- Maximal Percent Aggregation Response to 5 μg/ml Collagen [2, 10]: 82% and 100% (2×) and 97% and 98%
- Maximal Percent Aggregation Response to 5 μg/ml Collagen ([2]; 6-paradol 100 μM, Mean): 85%
- Maximal Percent Aggregation Response to 5 μg/ml Collagen [2, 11]: 82% and 100% and 88% and 89% and 64%
- inhibition of collagen-mediated platelet aggregation response ([2]; 6-paradol 1000 μM): substantially inhibited
- Maximal Percent Aggregation Response to 5 μg/ml Collagen ([2]; 6-paradol 1000 μM, Mean): 41%
- Maximal Percent Aggregation Response to 5 μg/ml Collagen [2, 12]: 23% and 60% and 36% and 74% and 10%
- inhibition of collagen-mediated platelet aggregation ([2]; 6-paradol concentrations of 100 μM or less): did not significantly inhibit
- Maximal Percent Aggregation Response to 1.6 mM Arachidonic Acid ([3]; 6-paradol 1 μM, Mean): 82%
- Maximal Percent Aggregation Response to 1.6 mM Arachidonic Acid [3, 9]: 72% and 77% and 96% and 65% and 98%
- Maximal Percent Aggregation Response to 1.6 mM Arachidonic Acid ([3]; 6-paradol 10 μM, Mean): 51%
- Maximal Percent Aggregation Response to 1.6 mM Arachidonic Acid [3, 10]: 0% (2×) and 99% and 71% and 87%
- Maximal Percent Aggregation Response to 1.6 mM Arachidonic Acid ([3]; 6-paradol 100 μM, Mean): 2%
- Maximal Percent Aggregation Response to 1.6 mM Arachidonic Acid [3, 11]: 0% (4×) and 9%
- Maximal Percent Aggregation Response to 1.6 mM Arachidonic Acid ([3]; 6-paradol 1000 μM, Mean): 1%
- Maximal Percent Aggregation Response to 1.6 mM Arachidonic Acid [3, 12]: 0% (4×) and 3%
- inhibition of AA-mediated platelet aggregation [3, 7]: Near complete inhibition
- inhibition of AA-mediated platelet aggregation [3, 8]: did not significantly inhibit
